Patent US10765763B2, “Radioligands for myelin” (CASE WESTERN RESERVE UNIVERSITY, priority 2016, dated 2020)
“Also recorded” adds a separate entry of the source.

What was measured:
myelin [1] = assay: In vitro detection of focal demyelination in LPC rat model; format: binding; conditions: in vitro tissue staining
Method: Sprague-Dawley female rats (220-250 g, 8 weeks old) were anesthetized and positioned in a stereotaxic frame (Stoelting). A small incision was made in the scalp, and the corpus callosum was targeted using the following stereotaxic coordinates, relative to bregma: anterior-posterior, 0.0 mm; medial-lateral, 2.0 mm; and dorsal-ventral, 3.4 mm A small hole was drilled in the skull, and a 26S-gauge needle attached to a 10 μL Hamilton Syringe was lowered into the corpus callosum according to the dorsal-ventral coordinate. A microinjector pump (Stoelting) controlled the infusion of 6 μL of lysolecithin (LPC, 0.1% in saline) at a rate of 0.25 μL/min, after which the needle was left in place for 2 min in order to prevent liquid reflux out of the brain parenchyma. The incision was then closed using 5-0 Ethicon sutures, and the animals were allowed to recover on a heating pad. After 5-7 days, the animals were ready for study.
Five days after surgery, the rats were anesthetized and perfused with saline followed by 4% PFA. […] Sections were then examined under a microscope (Leica DM4000B, Leica Microsystem Inc., Buffalo Grove, Ill., USA) equipped for fluorescence (DFC7000T), and images of the stained mouse whole brain sections were acquired with the same exposure time. […]

myelin [2] = assay: In situ histological staining of SCI (T13) spinal cord after microPET/CT; format: in vivo, rat; conditions: SCI rats, 60 min after tail vein injection
Method: After microPET imaging studies, the rats were administered compound 21 (3-5 mg) via tail vein injection, and 60 min later the rats were perfused transcardially with saline followed by 4% PFA in PBS. Spinal cords were then removed, postfixed by immersion in 4% PFA overnight, dehydrated in 30% sucrose solution, cryostat sectioned at 100 μm, mounted consecutively on superfrost slides, and images were sequentially acquired directly using a Leica fluorescent microscope to give a series of 2D microscopic images along the length of the spinal cord. Slices were aligned sequentially using a semiautomated image registration algorithm. Starting from the first slice image, the current slice was used as the reference image for alignment and the next slice was the floating image. The floating image was aligned via control point pairs between corresponding anatomic features in the two images. A 2D rigid-body transformation (translation, rotation) was used to transform the floating image to align with the reference and a minimum of three control point pairs were used for the transformation. […] All slices in the sequence were aligned by this technique, giving a 3D reconstructed fluorescence image volume. Image volumes from fluorescence, PET, and CT were visualized in Amira using volume rendering and aligned based on the shape of the spine and fiducials from the vertebrae. […]

myelin [3] = assay: In situ staining of compound 21 in wild-type mice; format: in vivo, mouse; conditions: WT mice, 1.0 mg (50 mg/kg) tail vein, 1 h
Method: Wild-type mice were administered the newly synthesized compounds (40 mg/kg) via tail vein injection, and 30-60 min later the mice were perfused transcardially with saline followed by 4% PFA in PBS. Brains and spinal cords were then removed, postfixed by immersion in 4% PFA overnight, dehydrated in 30% sucrose solution, cryostat sectioned at 100 μm, mounted on superfrost slides, and images were acquired directly using a Leica fluorescent microscope.
Following the in vitro studies, we then investigated the ability of compound 21 to readily enter the brain and bind to myelin in situ. A dose of 1.0 mg of compound 21 (50 mg/kg) was administered via the tail vein to wild-type (WT) mice. One hour after injection, the mice were perfused with saline followed by 4% paraformaldehyde (PFA) and the brain and spinal cord were removed and sectioned. The distribution of compound 21 was then directly examined under a fluorescent microscope.

[4] = Quantitative microPET/CT imaging in WT rats, Example 2; format: in vivo, rat
Method: (§1) For better anatomic localization, CT co-registration was applied.
Following radiosynthesis, the pharmacokinetic profile of [^18F]21 was fully characterized by quantitative microPET/CT imaging in WT rats (n=3). […] The brain radioactivity peaked at 3 min postinjection followed by rapid clearance before reaching a plateau at 40-60 min postinjection.

myelin [5] = assay: Quantitative microPET/CT imaging in Shiverer and WT mice; format: in vivo, mouse; conditions: microPET
Method: as §1
To further evaluate the in vivo binding specificity of [^18F]21, we investigated the pharmacokinetic profiles of [^18F]21 in a Shiverer mouse model that is deficient in myelin in the brain. Thus, the pharmacokinetic profiles of [^18F]21 were quantitatively compared between Shiverer mice (C3Fe.SWV-Mbpshi/J, n=2) and age-matched WT mice (CB57J, n=2).
Dynamic emission scans were acquired for 60 min in 3D list mode immediately after [^18F]21 (0.3 mCi each mouse, 11.1 MBq) was administered. The brain uptake of [^18F]21 was lower in the Shiverer brain than in the WT littermates (1.25 vs 1.64). After the brain concentration of [^18F]21 reached a plateau, the SUVs from 40 to 60 min were summarized and compared.

myelin [6] = assay: Quantitative microPET/CT imaging of spinal cord in rat SCI model; format: in vivo; conditions: for uptake in T13: normalized to average spine uptake
Method: Sprague-Dawley female rats (220-250 g, 8 weeks old) were anesthetized and a restricted laminectomy was conducted to expose the dorsal surface of T13. The vertebral column between T12 and L1 was then stabilized with clamps and forceps fixed to the base of an Infinite Horizon impact device. The midpoint of T13 was impacted with a force of 250 kDyn using a 2.5 mm stainless steel impactor tip, which was used to induce a moderately severe contusive injury to the spinal cord. The musculature was then sutured over the laminectomy site and the skin closed with wound clips followed by subsequent treatment with Marcaine at the incision site. The force/displacement graph was used to monitor impact consistency. After surgery, the animals were carefully monitored daily for pain and body weight with manual bladder expression 2-3 times daily to stimulate reflex voiding until the animals could urinate independently.
as §1
So far, imaging of the spinal cord remains a great challenge. […] Next, we asked whether [18F]21 PET is capable of in vivo imaging of myelin deficiency or myelin damage in living animal models. We conducted [^18F]21-PET imaging in a rat model of thoracic contusive SCI. In this model, the contusion was made at T13 to introduce demyelination. In vivo [^18F]21 PET imaging was performed before (as a baseline scan) and 1 day after contusion. The uptake of [^18F]21 in every spine segment was then normalized to the average spine uptake. […] After microPET/CT imaging, we conducted in situ histological staining of the spinal cord 60 min after injection of nonlabeled compound 21 through the tail vein.

myelin [7] = assay: In situ autoradiography of [18F]21 in mouse brain; format: in vivo; conditions: coronal, after tail vein injection
Method: Wild-type mice were euthanized at 30 min post iv injection of [^18F]21 (111 MBq, 3.0 mCi). The brains were rapidly removed, placed in OCT embedding medium, and frozen at −20° C. After reaching equilibrium at this temperature, the brains were coronally sectioned at 60 μm on a cryostat and mounted on superfrost slides. After drying by air at room temperature, the slides were put in a cassette and exposed for 20 min to film to obtain images.
To validate the PET results and confirm that the PET signals were indeed from specific binding to myelin, we conducted ex vivo autoradiography in the mouse brain following administration of [^18F]21 through tail vein injections. After 1 h, the mouse brain was dissected for coronal tissue sectioning. […] Thus, combination of in situ autoradiography and PET imaging confirmed that [^18F]21 binds specifically to myelin in vivo.

Row | brain uptake ([4]; WT rats (n=3), microPET/CT) | time constant of clearance ([4]; WT rats, calculated from fitted time-radioactivity curve) | time of peak brain radioactivity ([4]; WT rats, postinjection) | time of plateau of brain radioactivity ([4]; WT rats, postinjection) | SMILES | detection of demyelinated lesion by fluorescent staining (myelin [1]) | in situ histological staining of SCI (T13) tissue section (myelin [2]) | brain/spinal cord entry and in situ myelin staining (myelin [3]) | brain uptake (myelin [5]; Shiverer mouse brain) | brain uptake (myelin [5]; WT littermates) | uptake in L1 (myelin [6]; 1 day post-T13 contusion) | uptake in T12 (myelin [6]; 1 day post-T13 contusion) | uptake in T13 (myelin [6]; SCI group, 1 day post-T13 contusion) | uptake in T13 (myelin [6]; baseline scan before contusion) | uptake in L1 (myelin [6]; before contusion) | uptake in T12 (myelin [6]; before contusion) | autoradiographic labeling (myelin [7])
1 | – | – | – | – | CNc1ccc(/C=C/c2ccc(NCc3cn(CCF)nn3)cc2)cc1 [Compound 21, (E)-N-((1-(2-Fluoroethyl)-1H-1,2,3-triazol-4-yl)methyl)-4-(4-(methylamino)styryl)aniline] | capable of detecting the demyelinated focal lesion by fluorescent staining; also recorded: can be used to detect demyelinated lesion | showed that a demyelinated lesion was present at the dorsal column | readily entered the brain and spinal cord and localized in all the myelinated regions in proportion to the myelin content; also recorded: crosses the BBB and stains myelinated areas of the mouse brain | – | – | – | – | – | – | – | – | –
2 | high uptake in the brain | 19.45 min | 3 min | 40 to 60 min | CNc1ccc(/C=C/c2ccc(NCc3cn(CC[18F])nn3)cc2)cc1 [[^18F]21] | – | – | – | 1.25 | 1.64 | 1.08 | 0.99 | 0.81 | 1.02 | 1.05 | 0.99 | distinctly labeled the corpus callosum
